{"source": "patent US9326506B2", "about": "“Preparation method, agricultural composition and applications of natural brassinolide analogs” (CHENGDU NEWSUN CROPSCIENCE CO., LTD, priority 2012, dated 2016)", "tested_on": "rice", "assay": "Low temperature assay on rice seedlings", "assay_type": "in vivo", "method": "According to a low temperature assay, we measured parameters including plant height, number of leaf, area of leaf, number of tiller, weight of root at low temperature to completely determine effects of the natural brassinolide analogues on the resistance to low temperature of a plant.\nThe natural brassinolide analogues, BR1, BR2, BR3, BR4, BR5 and BR6, used herein, were those prepared by the method of Example 1. Respectively the analogues were dissolved into 95% (V/V) ethanol solution, and then diluted with pure water to 1 mg/L, 0.1 mg/L, 0.01 mg/L, 0.001 mg/L and 0.0001 mg/L. In addition, pure water was used as a control.\nAfter rice seeds were disinfected by using 5% sodium hypochlorite solution treatment, they were rinsed with distilled water until their pH>7, placed into a petri dish in a dark incubator, and cultured by using water at 30° C.±2° C. for 9 days. Then respectively the nine-day-old etiolated seedlings of rice were immersed in the above solutions containing different concentrations of the natural brassinolide analogues or pure water, and cultured at the temperature of 1° C., 2° C., 3° C., 4° C. and 5° C. for 24 hr. The parameters including plant height, area of leaf and weight of root after 3, 6, 9 and 12 days and number of leaf and number of tiller after 12 days were measured.", "data": [{"molecule": "CC(C)C[C@@H](O)[C@H](O)[C@@H](C)[C@H]1CCC2C3CC(=O)C4C[C@H](O)[C@H](O)C[C@]4(C)C3CC[C@@]21C", "note": "(stereo partly drawn) [BR5]", "values": [{"measurement": "Area of leaf", "setting": "0.0001 mg/l, 1 °C, 3 days", "value": 9.8, "unit": "cm^2"}, {"measurement": "Height", "setting": "0.0001 mg/l, 1 °C, 3 days", "value": 6.8, "unit": "cm"}, {"measurement": "Weight of root", "setting": "0.0001 mg/l, 1 °C, 3 days", "value": 2.8, "unit": "g"}, {"measurement": "Area of leaf", "setting": "0.0001 mg/l, 1 °C, 6 days", "value": 11.2, "unit": "cm^2"}, {"measurement": "Height", "setting": "0.0001 mg/l, 1 °C, 6 days", "value": 6.9, "unit": "cm"}, {"measurement": "Weight of root", "setting": "0.0001 mg/l, 1 °C, 6 days", "value": 3.1, "unit": "g"}, {"measurement": "Area of leaf", "setting": "0.0001 mg/l, 1 °C, 9 days", "value": 12, "unit": "cm^2"}, {"measurement": "Height", "setting": "0.0001 mg/l, 1 °C, 9 days", "value": 7, "unit": "cm"}, {"measurement": "Weight of root", "setting": "0.0001 mg/l, 1 °C, 9 days", "value": 3.4, "unit": "g"}, {"measurement": "Area of leaf", "setting": "0.0001 mg/l, 1 °C, 12 days", "value": 13.1, "unit": "cm^2"}, {"measurement": "Height", "setting": "0.0001 mg/l, 1 °C, 12 days", "value": 7.2, "unit": "cm"}, {"measurement": "Number of leaf", "setting": "0.0001 mg/l, 1 °C, 12 days", "value": 3}, {"measurement": "Number of tiller", "setting": "0.0001 mg/l, 1 °C, 12 days", "value": 3}, {"measurement": "Weight of root", "setting": "0.0001 mg/l, 1 °C, 12 days", "value": 3.6, "unit": "g"}, {"measurement": "Area of leaf", "setting": "0.0001 mg/l, 2 °C, 3 days", "value": 10, "unit": "cm^2"}, {"measurement": "Height", "setting": "0.0001 mg/l, 2 °C, 3 days", "value": 6.8, "unit": "cm"}, {"measurement": "Weight of root", "setting": "0.0001 mg/l, 2 °C, 3 days", "value": 2.8, "unit": "g"}, {"measurement": "Area of leaf", "setting": "0.0001 mg/l, 2 °C, 6 days", "value": 11.7, "unit": "cm^2"}, {"measurement": "Height", "setting": "0.0001 mg/l, 2 °C, 6 days", "value": 7, "unit": "cm"}, {"measurement": "Weight of root", "setting": "0.0001 mg/l, 2 °C, 6 days", "value": 3.0, "unit": "g"}, {"measurement": "Area of leaf", "setting": "0.0001 mg/l, 2 °C, 9 days", "value": 12.4, "unit": "cm^2"}, {"measurement": "Height", "setting": "0.0001 mg/l, 2 °C, 9 days", "value": 7.1, "unit": "cm"}, {"measurement": "Weight of root", "setting": "0.0001 mg/l, 2 °C, 9 days", "value": 3.2, "unit": "g"}, {"measurement": "Area of leaf", "setting": "0.0001 mg/l, 2 °C, 12 days", "value": 13, "unit": "cm^2"}, {"measurement": "Height", "setting": "0.0001 mg/l, 2 °C, 12 days", "value": 7.4, "unit": "cm"}, {"measurement": "Number of leaf", "setting": "0.0001 mg/l, 2 °C, 12 days", "value": 3}, {"measurement": "Number of tiller", "setting": "0.0001 mg/l, 2 °C, 12 days", "value": 3}, {"measurement": "Weight of root", "setting": "0.0001 mg/l, 2 °C, 12 days", "value": 3.4, "unit": "g"}, {"measurement": "Area of leaf", "setting": "0.0001 mg/l, 3 °C, 3 days", "value": 10, "unit": "cm^2"}, {"measurement": "Height", "setting": "0.0001 mg/l, 3 °C, 3 days", "value": 6.9, "unit": "cm"}, {"measurement": "Weight of root", "setting": "0.0001 mg/l, 3 °C, 3 days", "value": 2.5, "unit": "g"}, {"measurement": "Area of leaf", "setting": "0.0001 mg/l, 3 °C, 6 days", "value": 11.8, "unit": "cm^2"}, {"measurement": "Height", "setting": "0.0001 mg/l, 3 °C, 6 days", "value": 7.2, "unit": "cm"}, {"measurement": "Weight of root", "setting": "0.0001 mg/l, 3 °C, 6 days", "value": 2.6, "unit": "g"}, {"measurement": "Area of leaf", "setting": "0.0001 mg/l, 3 °C, 9 days", "value": 12.3, "unit": "cm^2"}, {"measurement": "Height", "setting": "0.0001 mg/l, 3 °C, 9 days", "value": 7.4, "unit": "cm"}, {"measurement": "Weight of root", "setting": "0.0001 mg/l, 3 °C, 9 days", "value": 2.9, "unit": "g"}, {"measurement": "Area of leaf", "setting": "0.0001 mg/l, 3 °C, 12 days", "value": 13.2, "unit": "cm^2"}, {"measurement": "Height", "setting": "0.0001 mg/l, 3 °C, 12 days", "value": 7.5, "unit": "cm"}, {"measurement": "Number of leaf", "setting": "0.0001 mg/l, 3 °C, 12 days", "value": 3}, {"measurement": "Number of tiller", "setting": "0.0001 mg/l, 3 °C, 12 days", "value": 2}, {"measurement": "Weight of root", "setting": "0.0001 mg/l, 3 °C, 12 days", "value": 2.9, "unit": "g"}, {"measurement": "Area of leaf", "setting": "0.0001 mg/l, 4 °C, 3 days", "value": 10, "unit": "cm^2"}, {"measurement": "Height", "setting": "0.0001 mg/l, 4 °C, 3 days", "value": 6.9, "unit": "cm"}, {"measurement": "Weight of root", "setting": "0.0001 mg/l, 4 °C, 3 days", "value": 2.5, "unit": "g"}, {"measurement": "Area of leaf", "setting": "0.0001 mg/l, 4 °C, 6 days", "value": 11.7, "unit": "cm^2"}, {"measurement": "Height", "setting": "0.0001 mg/l, 4 °C, 6 days", "value": 7.3, "unit": "cm"}, {"measurement": "Weight of root", "setting": "0.0001 mg/l, 4 °C, 6 days", "value": 2.6, "unit": "g"}, {"measurement": "Area of leaf", "setting": "0.0001 mg/l, 4 °C, 9 days", "value": 13, "unit": "cm^2"}, {"measurement": "Height", "setting": "0.0001 mg/l, 4 °C, 9 days", "value": 7.5, "unit": "cm"}, {"measurement": "Weight of root", "setting": "0.0001 mg/l, 4 °C, 9 days", "value": 2.7, "unit": "g"}, {"measurement": "Area of leaf", "setting": "0.0001 mg/l, 4 °C, 12 days", "value": 13.4, "unit": "cm^2"}, {"measurement": "Height", "setting": "0.0001 mg/l, 4 °C, 12 days", "value": 7.6, "unit": "cm"}, {"measurement": "Number of leaf", "setting": "0.0001 mg/l, 4 °C, 12 days", "value": 3}, {"measurement": "Number of tiller", "setting": "0.0001 mg/l, 4 °C, 12 days", "value": 2}, {"measurement": "Weight of root", "setting": "0.0001 mg/l, 4 °C, 12 days", "value": 2.9, "unit": "g"}, {"measurement": "Area of leaf", "setting": "0.0001 mg/l, 5 °C, 3 days", "value": 10.2, "unit": "cm^2"}, {"measurement": "Height", "setting": "0.0001 mg/l, 5 °C, 3 days", "value": 7.0, "unit": "cm"}, {"measurement": "Weight of root", "setting": "0.0001 mg/l, 5 °C, 3 days", "value": 2.5, "unit": "g"}, {"measurement": "Area of leaf", "setting": "0.0001 mg/l, 5 °C, 6 days", "value": 12, "unit": "cm^2"}, {"measurement": "Height", "setting": "0.0001 mg/l, 5 °C, 6 days", "value": 7.2, "unit": "cm"}, {"measurement": "Weight of root", "setting": "0.0001 mg/l, 5 °C, 6 days", "value": 2.7, "unit": "g"}, {"measurement": "Area of leaf", "setting": "0.0001 mg/l, 5 °C, 9 days", "value": 13.2, "unit": "cm^2"}, {"measurement": "Height", "setting": "0.0001 mg/l, 5 °C, 9 days", "value": 7.5, "unit": "cm"}, {"measurement": "Weight of root", "setting": "0.0001 mg/l, 5 °C, 9 days", "value": 2.9, "unit": "g"}, {"measurement": "Area of leaf", "setting": "0.0001 mg/l, 5 °C, 12 days", "value": 14, "unit": "cm^2"}, {"measurement": "Height", "setting": "0.0001 mg/l, 5 °C, 12 days", "value": 7.7, "unit": "cm"}, {"measurement": "Number of leaf", "setting": "0.0001 mg/l, 5 °C, 12 days", "value": 3}, {"measurement": "Number of tiller", "setting": "0.0001 mg/l, 5 °C, 12 days", "value": 2}, {"measurement": "Weight of root", "setting": "0.0001 mg/l, 5 °C, 12 days", "value": 3.0, "unit": "g"}, {"measurement": "Area of leaf", "setting": "0.001 mg/l, 1 °C, 3 days", "value": 10.1, "unit": "cm^2"}, {"measurement": "Height", "setting": "0.001 mg/l, 1 °C, 3 days", "value": 6.9, "unit": "cm"}, {"measurement": "Weight of root", "setting": "0.001 mg/l, 1 °C, 3 days", "value": 2.8, "unit": "g"}, {"measurement": "Area of leaf", "setting": "0.001 mg/l, 1 °C, 6 days", "value": 11.3, "unit": "cm^2"}, {"measurement": "Height", "setting": "0.001 mg/l, 1 °C, 6 days", "value": 7.1, "unit": "cm"}, {"measurement": "Weight of root", "setting": "0.001 mg/l, 1 °C, 6 days", "value": 3.1, "unit": "g"}, {"measurement": "Area of leaf", "setting": "0.001 mg/l, 1 °C, 9 days", "value": 12.8, "unit": "cm^2"}, {"measurement": "Height", "setting": "0.001 mg/l, 1 °C, 9 days", "value": 7.2, "unit": "cm"}, {"measurement": "Weight of root", "setting": "0.001 mg/l, 1 °C, 9 days", "value": 3.3, "unit": "g"}, {"measurement": "Area of leaf", "setting": "0.001 mg/l, 1 °C, 12 days", "value": 13, "unit": "cm^2"}, {"measurement": "Height", "setting": "0.001 mg/l, 1 °C, 12 days", "value": 7.3, "unit": "cm"}, {"measurement": "Number of leaf", "setting": "0.001 mg/l, 1 °C, 12 days", "value": 3}, {"measurement": "Number of tiller", "setting": "0.001 mg/l, 1 °C, 12 days", "value": 3}, {"measurement": "Weight of root", "setting": "0.001 mg/l, 1 °C, 12 days", "value": 3.9, "unit": "g"}, {"measurement": "Area of leaf", "setting": "0.001 mg/l, 2 °C, 3 days", "value": 9.8, "unit": "cm^2"}, {"measurement": "Height", "setting": "0.001 mg/l, 2 °C, 3 days", "value": 6.9, "unit": "cm"}, {"measurement": "Weight of root", "setting": "0.001 mg/l, 2 °C, 3 days", "value": 2.8, "unit": "g"}]}]}
